The record followed here is patent US9579325B2, “Modulators of TNF-α signaling” (Genzyme Corporation, priority 2000, dated 2017).

A short description of series [1]: Pharmacokinetic parameters. Format: in vivo. The settings on record: in vivo.
The subject of the next series is C57/BL mouse. Kind of series: Sepsis model: murine LPS-d-galactosamine model. Format: in vivo. The settings on record: 200 mg/kg intraperitoneally one hour before induction; prevention of mortality over three days. Here is the method:
Sepsis was induced in the C57/BL mouse by the intravenous injection of 20 ng of lipopolysaccharide/animal plus 20 mgs d-galactosamine/animal. Inhibition was measured as the prevention of mortality over a three day period. Compounds were administered intraperitoneally in 10% cremophore/10% ethanol/80% normal saline one hour before induction.

Another series relates to L929 cells. Kind of series: TNF High Throughput Screen (TNF-α driven apoptosis assay). Type of series: cell-based, mouse. The settings on record: Mus musculus, human TNF-α + actinomycin D, read-out: TNFα IC50. Summed up:
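Mouse L929 cells were pretreated with compound for 2 hours, then given human TNF-α plus actinomycin D (40 μg/ml final) overnight. Surviving cells were stained with crystal violet, solubilised in methanol and read at 595 nm. Values are % inhibition at 1 μM (0 = TNF alone, 100 = no TNF) or IC50 from sigmoidal fits of dilution series.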

In a further series the test system is male rats. Kind of series: Inflammatory Bowel Disease model: rat DNBS distal colitis. Type of series: in vivo. The settings on record: 100 mg/kg orally, 7 doses. Here is the method: Groups of three male rats weighing 150+/−10 g and fasted for 24 hours were used. Distal colitis was induced by intracolonic instillation of 0.5 ml/rat DNBS (2,4-dinitrobenzene sulfonic acid, 60 mg/ml in ethanol 30%) after which air (2 ml) was gently injected through the cannula to ensure that the solution remains in the colon. A test compound was administered orally 24 and 2 hours before DNBS-instillation and then daily for 5 days in a total of 7 doses. The animals were sacrificed 24 hours after the final dose of test compound administration and each colon was removed and weighed.

On to `N#Cc1cccc(C(C(=O)NCC(c2ccccc2)c2ccccc2)N(CCc2c[nH]cn2)C(=O)c2ccccc2C(=O)c2ccccc2)c1` (centres unmarked) [Compound 44], for which, in series [1] (po, species not given), the bioavailability turned out to be 26%. In series [1] (unit and species not given, read-out: Pharmacokinetic Parameters t1/2 (converted)), the half-life is 2.3 h. In addition, in the series with C57/BL mouse, the “Sepsis: Murine LPS-d-galactosamine model % inhibition” value is recorded as 33 +/− 1 @ 200%. Also, in the series with L929 cells, the IC50 worked out at 410 nM. Further, the “Inflammatory Bowel Disease: Rat DNBS model % inhibition of colonic weight gain” value in the series with male rats is reported as 44 +/− 8 @ 100 mg/kg %.

As usually defined, the bioavailability is the share of a dose that reaches the circulation, judged against a reference dose that is usually intravenous. A higher bioavailability goes with good availability. The IC50 is the midpoint of a concentration-inhibition curve.
